Tests used:
ICR outbred mice [1] = experiment: Elevated plus-maze (EPM), anxiety-like behavior in UCMS-stressed mice; assay type: in vivo; details: 3-week treatment (FIG. 2), compared to saline
Protocol: Animals. ICR outbred mice (Envigo RMS (Harlen), Israel) were kept in the vivarium of the Psychobiological laboratory of the Open University, […] Medical Center, Jerusalem. Mice were kept on a reversed 12-hour light/dark cycle and given ad libitum access to food and water. All experiments were performed during the dark phase under red light (7:00-19:00). All experiments were approved by the Committee for animal care and use according to the NIH guidelines. Drugs administration. […] Unpredictable chronic mild stress (UCMS). Mice were exposed to UCMS for 4 weeks at the age of 4 weeks as previously described (Malkoff, A., et al. (2008) J Neural Transm 115, 1563-1571). Elevated plus-maze (EPM) and Open field test (OFT). Anxiety-like behavior was assessed using EPM and OFT as previously described ([…]. (2009) Brain Res 1256, 138-148). Locomotion was assessed using the OFT and expressed as the percentage of time that the mouse moved in a velocity above 0.1 pixel/sec. Data analysis and interpretation of results. Data was analyzed using a one-way ANOVA with Treatment as a between subject variable, performed on the time spent in the center area in the Novel Open Field and the time spent in the open arms for anxiety like behavior, and depressive like behavior was measured as the time the animal spent floating without moving. […]

ICR outbred mice [2] = experiment: Novel Open Field (NOF), anxiety-like behavior; assay type: in vivo; details: 3 weeks of treatment after 30 days UCMS (FIG. 4B); in comparison to the Saline and UR groups
Protocol: Animals. ICR outbred mice (Envigo RMS (Harlen), Israel) were kept in the vivarium of the Psychobiological laboratory of the Open University, […] Medical Center, Jerusalem. Mice were kept on a reversed 12-hour light/dark cycle and given ad libitum access to food and water. All experiments were performed during the dark phase under red light (7:00-19:00). All experiments were approved by the Committee for animal care and use according to the NIH guidelines. Drugs administration. […] Unpredictable chronic mild stress (UCMS). Mice were exposed to UCMS for 4 weeks at the age of 4 weeks as previously described (Malkoff, A., et al. (2008) J Neural Transm 115, 1563-1571). Novel Open Field (NOF). The novel open field consists of an empty square arena (40×40×40 cm) divided into 36 identical squares and surrounded by Perspex opaque walls. […] Mice were placed in the center of the arena and their behavior was video recorded for a total of 5 min, and later coded by an observer blind to the mice's treatment. Anxiety-like behavior was measured by the time spent in the peripheral area, i.e., the peripheral ring of the arena (6.67 cm from each wall, Walsh & Cummins, (1976) Psychological Bulletin, 83 (3), 482-504). […] Effects were evaluated in independent mice groups following 1 and 3 weeks of treatment. […]

BDNF = experiment: Hippocampal BDNF levels by sandwich ELISA; assay type: in vivo, mice; details: 3-week treatment (FIG. 3B), compared to saline
Protocol: Animals. ICR outbred mice (Envigo RMS (Harlen), Israel) were kept in the vivarium of the Psychobiological laboratory of the Open University, […] Medical Center, Jerusalem. Mice were kept on a reversed 12-hour light/dark cycle and given ad libitum access to food and water. All experiments were performed during the dark phase under red light (7:00-19:00). All experiments were approved by the Committee for animal care and use according to the NIH guidelines. Drugs administration. […] Assessment of BDNF levels. Hippocampus tissue samples are prepared as previously described ([…]., et al., European neuropsychopharmacology, 2006. 16(5): p. 329-339). Briefly, tissues were homogenized in cold extraction Tris-buffer and then acidified with 0.1 M HCl (pH 3.0) for 15 min at room temperature. Homogenates were neutralized with 0.1 M NaOH (pH 7.6) and centrifuged in a microcentrifuge at 7,000 g for 10 min. BDNF levels in the supernatant were evaluated using sandwich ELISA as previously described (Baker-Herman, T. L., et al., Nat Neurosci, 2004. 7(1): p. 48-55).

ICR outbred mice [3] = experiment: Forced Swim Test (FST), depressive-like behavior; assay type: in vivo; details: 3 week treatment after 30 days UCMS (FIG. 5B); in comparison to the NHT and Saline groups
Protocol: Animals. ICR outbred mice (Envigo RMS (Harlen), Israel) were kept in the vivarium of the Psychobiological laboratory of the Open University, […] Medical Center, Jerusalem. Mice were kept on a reversed 12-hour light/dark cycle and given ad libitum access to food and water. All experiments were performed during the dark phase under red light (7:00-19:00). All experiments were approved by the Committee for animal care and use according to the NIH guidelines. Drugs administration. […] Unpredictable chronic mild stress (UCMS). Mice were exposed to UCMS for 4 weeks at the age of 4 weeks as previously described (Malkoff, A., et al. (2008) J Neural Transm 115, 1563-1571). Forced Swim Test (FST). […] Depression like behavior was measured as the time the animal spent floated without moving, and swimming was defined as the time the animal spent engaged in active swimming or struggle movement. Effects were evaluated in independent mice groups following 1 and 3 weeks of treatment. The test was recorded by Viewer III (BIOB SERVE) software. […] Data was analyzed using a one-way ANOVA with Treatment as a between subject variable, performed on the time spent in the center area in the Novel Open Field and the time spent in the open arms for anxiety like behavior, and depressive like behavior was measured as the time the animal spent floating without moving. […]

ICR outbred mice [4] = experiment: Open field test (OFT), anxiety-like behavior; assay type: in vivo; details: 1-week treatment (FIG. 1C)
Protocol: Animals. ICR outbred mice (Envigo RMS (Harlen), Israel) were kept in the vivarium of the Psychobiological laboratory of the Open University, […] Medical Center, Jerusalem. Mice were kept on a reversed 12-hour light/dark cycle and given ad libitum access to food and water. All experiments were performed during the dark phase under red light (7:00-19:00). All experiments were approved by the Committee for animal care and use according to the NIH guidelines. Drugs administration. […] Unpredictable chronic mild stress (UCMS). Mice were exposed to UCMS for 4 weeks at the age of 4 weeks as previously described (Malkoff, A., et al. (2008) J Neural Transm 115, 1563-1571). Elevated plus-maze (EPM) and Open field test (OFT). Anxiety-like behavior was assessed using EPM and OFT as previously described ([…]. (2009) Brain Res 1256, 138-148). Locomotion was assessed using the OFT and expressed as the percentage of time that the mouse moved in a velocity above 0.1 pixel/sec.

[5] = literature; cited from earlier work

Structure (SMILES): CN(C)CCC[C@@]1(c2ccc(F)cc2)OCc2cc(C#N)ccc21 [escitalopram]
- anxiety-like behavior in the EPM (time spent in the open arms) (ICR outbred mice [1]): reduced anxiety-like behavior
- time in the center of the arena, novel open field (ICR outbred mice [2]): spent significantly more time in the center of the arena
- hippocampal BDNF levels (BDNF): increased BDNF levels
- time floated-immobile in the FST (depressive-like behavior) (ICR outbred mice [3]): spent significantly less time floated-immobile
- anxiety-like behavior in the OFT (ICR outbred mice [4]): ineffective

Structure (SMILES): C/C=C1/CN2CCc3c([nH]c4ccccc34)[C@@H]2C[C@@H]1/C(=C/OC)C(=O)OC [GM, geissoschizine methyl ether]
- isolation-induced increased aggressiveness and decreased sociality [5]: ameliorated
